Experimental data published in ChEMBL document CHEMBL1201862, “PubChem BioAssay data set” (2004).
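Dose response: 5 concentrations. Exposure: 48 h. Format: 96-well plates. Endpoint: linear interpolation; highest concentration if not reached. Here, GI50 denotes the concentration required for 50% inhibition of growth.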 Active and inactive are the calls of the source. Cut-off read from the data, not from the text of the source: active = GI50 up to about 1.1 µM and inactive = higher.

Assays:
Experiment in all cases: NCI tumour cell line growth inhibition, 48 h
[1] = test system: 786-0
[2] = test system: A498
[3] = test system: ACHN
[4] = test system: COLO 205
[5] = test system: DU-145
[6] = test system: KM12
[7] = test system: LOX IMVI
[8] = test system: MCF7
[9] = test system: MDA-MB-231
[10] = test system: MDA-MB-435
[11] = test system: MDA-N
[12] = test system: NCI-H226
[13] = test system: NCI/ADR-RES
[14] = test system: OVCAR-5
[15] = test system: RXF 393
[16] = test system: SF-268
[17] = test system: SK-MEL-28
[18] = test system: SK-MEL-5
[19] = test system: SR
[20] = test system: U-251

Row | Structure (SMILES) | GI50 [1] | GI50 [2] | GI50 [3] | GI50 [4] | GI50 [5] | GI50 [6] | GI50 [7] | GI50 [8] | GI50 [9] | GI50 [10] | GI50 [11] | GI50 [12] | GI50 [13] | GI50 [14] | GI50 [15] | GI50 [16] | GI50 [17] | GI50 [18] | GI50 [19] | GI50 [20]
1 | O=C1C=CC(=O)c2ncccc21 | 2710 nM (inactive) | 13800 nM (inactive) | 2630 nM (inactive) | 2580 nM (inactive) | 7800 nM (inactive) | 12100 nM (inactive) | 2090 nM (inactive) | 4420 nM (inactive) | 2470 nM (inactive) | 5700 nM (inactive) | 4560 nM (inactive) | 12100 nM (inactive) | 11300 nM (inactive) | 17500 nM (inactive) | 6010 nM (inactive) | 10900 nM (inactive) | 3460 nM (inactive) | 6500 nM (inactive) | 597 nM (active) | 3180 nM (inactive)
2 | CO[C@H]1C[C@H](O[C@H]2CC[C@]3(C=O)[C@H]4CC[C@]5(C)[C@@H](C6=CC(=O)OC6)CC[C@]5(O)[C@@H]4CC[C@]3(O)C2)O[C@H](C)[C@H]1O [CYMARIN] | 137 nM (active) | 294 nM (active) | 91.2 nM (active) | 618 nM (active) | 115 nM (active) | 402 nM (active) | 184 nM (active) | 463 nM (active) | 1140 nM (inactive) | 344 nM (active) | 136 nM (active) | 540 nM (active) | 257 nM (active) | 478 nM (active) | 46.7 nM (active) | 126 nM (active) | 845 nM (active) | 99.3 nM (active) | 409 nM (active) | 314 nM (active)
